Legend:
iNOS = iNOS protein expression in LPS-stimulated THP-1 macrophages (western blot); format: cell-based, human; conditions: 8 μg/mL, LPS-stimulated THP-1 cells
Experimental: COX-2 is the key enzyme regulating the production of prostaglandins, which are the central mediators of inflammation. On the other hand, iNOS enzyme represents an important molecular target closely involved in inflammatory responses. Thus, the effect of the AMTs 1–8 on LPS-induced COX-2 and iNOS protein expression was investigated by western blot analysis.
Figure 3 Effect of meroterpenoids 1–8 on LPS-induced COX-2 and iNOS protein expression in THP-1 macrophages. Cells were pretreated for 1 h with the compounds (1, 2, 3, 4, 7, and 8 at 8 μg/mL; 5 and 6 at 4 μg/mL) and then stimulated with LPS (1 μg/mL). Cytosolic lysates from 24 h-stimulated cells were separated on 10% SDS-PAGE. COX-2, iNOS, and β-actin were detected by western blot analysis. Data are expressed as means ± SE from three independent experiments. Statistical significance is indicated (+++ p < 0.001 and ++ p < 0.01, vs. Control, respectively; * p < 0.05, and ** p < 0.01 vs. Control + LPS).
Western blotting was used to measure the protein levels of COX-2 and iNOS [65]. […] Proteins concentration in cell lysates was determined by Bio-Rad Protein Assay, based on the method of Bradford (BioRad, Richmond CA, USA). […] The protein band densities were quantified using a Scientific Imaging Systems (Biophotonics ImageJ Analysis Software, National Institute of Mental Health, Bethesda, MD, USA).

colitis = system: colitis; set-up: method as in PMID 27527191; conditions: down-regulating TNF-α, IL-1ß, IL-10, suppressing COX-2 and iNOS expression in mouse colon tissue; cited from earlier work
[1] = Cytotoxicity against normal lung cells MRC-5 (MTT assay); format: cell-based, human; conditions: human, MRC-5 fetal lung fibroblast cells, 50 μg/mL, 72 h, read-out: cell viability of normal cells
Experimental: The effect of the AMTs 1–8 on cell viability was investigated in the human lung cancer cell line A549. […] It has been reported that compounds with SI value higher or equal to 2.0 are potentially selective. […] It is worth noting that after treatment with 50 μg/mL of these two AMTs, the cell viability was lower than 15% for cancer cells and higher than 55% for normal cells.
Figure 4 Effects of different concentrations of meroterpenoids 1–8 on the viability of human lung cancer cell line A549 and the human fetal lung fibroblastic MRC-5 cells, using MTT assay after 72 h of treatment. Data are mean ±SE of three independent experiments. * p < 0.05, ** p < 0.01 and […] between the two cell lines.
Cell proliferation was evaluated by a modified MTT assay, which measures the mitochondrial dehydrogenase activity. A total of 5 × 10^3 cells/well (MRC-5 cells) and 3 × 10^3 cells/well (A549 cells) were cultured in a 96-well plate for 24 h. Then, treatments were added to the cell culture. After 72 h of incubation, the medium was removed and 125 µL of MTT (1 mg/mL in medium) was added to each well and incubated for 4 h. Next, 80 µL of 20% sodium dodecyl sulphate (SDS) was added and incubated for 5 h at 37 °C. The optical density of each well was measured at 540 nm (Synergy HT multiwell plate spectrophotometer reader, BioTek Instruments Inc., Winooski, VT, USA) to quantify cell viability. Cell viability (%) was calculated according to the following formula: % viability = (absorbance of compounds treated cells/absorbance of control cells) × 100. The degree of selectivity of the compounds was expressed by its SI value. Each SI value was calculated using the formula: SI = IC50 normal cell/IC50 cancer cell.

In the case of COc1c(C)cc(O)cc1C/C=C(\C)CC(=O)/C=C(\C)CCCC(C)(O)C(=O)/C=C/C(C)(C)O (stereo not shown) [Compound 2, 11-hydroxy-1’-O-methylamentadione], the “effect on iNOS (in words)” value (iNOS) is listed as “significantly inhibited” and the “in vivo effect in colitis (in words)” value (colitis) is listed as “intestinal anti-inflammatory activity in colitis”.

For COc1c(C)cc(O)cc1C/C=C(\C)CC(=O)/C=C(/C)CCCC(C)=O [Compound 4, cystomexicone A], the viability at 72 h, 50 µg/mL [1] was over 55%.

In the case of COc1c(C)cc(O)cc1C/C=C(\C)CC(=O)/C=C(\C)CCCC(C)=O [Compound 3, cystomexicone B], the viability at 72 h, 50 µg/mL [1] is reported as over 55%.
